Reference: patent US20110178396A1, “Nicotinamide Derivatives” (CRC FOR BIOMEDICAL IMAGING DEVELOPMENT LTD., priority 2008, published 2011)

Tests used:
[1] = HPLC metabolite analysis in plasma, tumour, eye and urine; type: in vivo; settings: for Percentage Unchanged Tracer: HPLC
[2] = test system: A375 human amelanotic melanoma tumour; assay: Biodistribution in A375 melanoma tumour bearing mice; type: in vivo, BALB/c nude mice; settings: for Organ distribution Intestine / Organ distribution Liver / Organ distribution Spleen / Organ distribution Stomach / Organ distribution Thyroid / Organ distribution Tumour: mean ± S.D.
Procedure: Animal experiments were performed in compliance with the NHMRC Australian Code of Practice for the care and use of animals for scientific purposes. Female C57BL/6J black and BALB/c nude albino mice of 5 weeks age were obtained from the Animal Resources Centre, Western Australia. B16F0 murine melanoma cells were originally obtained from European Collection of Cell Cultures (UK) and A375 human amelanotic melanoma cells were originally obtained from American Type Culture Collection (USA). Before transplantation, B16F0 and A375 melanoma cells were maintained as a monolayer in RPMI culture medium supplemented with 10% foetal calf serum and antibiotics and passaged with trypsinisation. Early passages were frozen and stored in liquid nitrogen. Cells were passaged to P=10 and then discarded. Frozen aliquots were grown in a monolayer culture to between 80-95% confluence and for transplantation were trypsinised and washed with Ca^2+ and Mg^2+ free phosphate buffered saline (PBS). For inoculation, B16F0 melanoma cells were resuspended in Ca^2+ and Mg^2+ free PBS at 3 or 5×10^6 viable cells per ml and 0.1 ml was subcutaneously injected at the left flank of 6-7 weeks old C57BL/6J mice. Eleven days later, tumours could be palpated in >98% of inoculated animals. A375 human melanoma cells were resuspended at 1×10^7 viablecells per ml and 0.1 ml was injected subcutaneously at the left flank of 6 weeks old BALB/c nude mice and 25-26 days later tumours could be palpated with ˜60% of inoculated animals developing tumours.
Eleven days (B16F0 melanoma) and 25 days (A375 human melanoma) after tumour transplantation, the [^18F]nicotinamides (0.5-1.5 MBq, 100 μl) and [^123I]nicotinamide (0.37-0.74 MBq, 100 μl) derivatives were injected intravenously via the tail vein into mice (15-18 g). Time points of 1, 3, 6, 24, 48, 72 h after injection were chosen for determining the distribution of each compound in various organs and tissues for the iodine-123 labelled compounds and between 15 min and 6 hours (e.g. 15 min, 30 min, 1 h, 2 h, 4 h or 6 h) were chosen for the ^18F-labelled compounds. At defined times post injection, groups of mice (n=5) were weighed, sacrificed by CO2 administration followed by cervical dislocation and dissected. Selected organs were weighed and their radioactivity measured with a γ-counter. The remaining activity in the carcass was also determined in order to obtain the total activity in the mouse at defined time points. The fraction of injected activity (% ID) in the organ was calculated by comparison with suitable dilutions of the injected dose. Then, the radioactivity concentration in the organ (% ID/g) was found by dividing the % ID for each organ by the weight of the organ.

[3] = A375 tumour bearing mice, 30 min
[4] = A375 tumour, BALB/c nude mice, 1 h, n = 5
[5] = A375 tumour, BALB/c nude mice, 1 h, mean ± SD, n = 5
[6] = A375 tumour, BALB/c nude mice, 6 h, n = 5
[7] = A375 tumour, BALB/c nude mice, 6 h, mean ± SD, n = 5
[8] = A375 tumour, BALB/c nude mice, 24 h, n = 5
[9] = A375 tumour, BALB/c nude mice, 24 h, mean ± SD, n = 5

CCN(CC)CCNC(=O)c1ccc(F)nc1 [[^18F]MEL2, 6-Fluoro-N-[2-(diethylamino)ethyl]nicotinamide]
Percentage Unchanged Tracer ([1]; Eye, 15 minutes): 100% | Percentage Unchanged Tracer ([1]; Eye, 60 minutes): 96% | Percentage Unchanged Tracer ([1]; Eye, 120 minutes): 99% | form of activity taken up in the tumour and eye ([1]; HPLC analysis at various time points): unchanged [^18F]MEL2 and not metabolites | form excreted in urine ([1]; HPLC analysis, all time points studied): excreted predominately as the unchanged radiotracer | Percentage Unchanged Tracer ([1]; Plasma, 15 minutes): 85% | Percentage Unchanged Tracer ([1]; Plasma, 60 minutes): 79% | Percentage Unchanged Tracer ([1]; Plasma, 120 minutes): 63% | Percentage Unchanged Tracer ([1]; Tumour, 15 minutes): 100% | Percentage Unchanged Tracer ([1]; Tumour, 60 minutes): 100% | Percentage Unchanged Tracer ([1]; Tumour, 120 minutes): 98% | Percentage Unchanged Tracer ([1]; Urine, 60 minutes): 90% | Percentage Unchanged Tracer ([1]; Urine, 120 minutes): 87% | uptake in tissue (tumour and eyes) ([2]; A375 amelanotic melanoma tumour bearing mice, three hour period): low uptake | uptake BLADDER [2, 3]: 8.937 % ID/g | uptake BLOOD [2, 3]: 1.323 % ID/g | uptake BONE [2, 3]: 1.912 % ID/g | uptake BRAIN [2, 3]: 1.831 % ID/g | uptake EYES [2, 3]: 1.704 % ID/g | uptake GIT [2, 3]: 3.432 % ID/g | uptake HEART [2, 3]: 1.898 % ID/g | uptake KIDNEY [2, 3]: 7.103 % ID/g | uptake LIVER [2, 3]: 6.820 % ID/g | uptake LUNGS [2, 3]: 2.836 % ID/g | uptake MUSCLE [2, 3]: 2.125 % ID/g | uptake SKIN [2, 3]: 2.521 % ID/g | uptake SPLEEN [2, 3]: 4.093 % ID/g | uptake STOMACH [2, 3]: 3.795 % ID/g | uptake THYROID [2, 3]: 2.745 % ID/g | uptake TUMOUR [2, 3]: 2.633 % ID/g | uptake URINE [2, 3]: 609.148 % ID/g | uptake BLADDER ([2]; A375 tumour bearing mice, 1 h): 3.717 % ID/g | uptake BLOOD ([2]; A375 tumour bearing mice, 1 h): 0.480 % ID/g | uptake BONE ([2]; A375 tumour bearing mice, 1 h): 0.863 % ID/g | uptake BRAIN ([2]; A375 tumour bearing mice, 1 h): 0.822 % ID/g | uptake EYES ([2]; A375 tumour bearing mice, 1 h): 0.626 % ID/g | uptake GIT ([2]; A375 tumour bearing mice, 1 h): 1.564 % ID/g | uptake HEART ([2]; A375 tumour bearing mice, 1 h): 0.604 % ID/g | uptake KIDNEY ([2]; A375 tumour bearing mice, 1 h): 2.032 % ID/g | uptake LIVER ([2]; A375 tumour bearing mice, 1 h): 2.670 % ID/g | uptake LUNGS ([2]; A375 tumour bearing mice, 1 h): 0.939 % ID/g | uptake MUSCLE ([2]; A375 tumour bearing mice, 1 h): 0.865 % ID/g | uptake SKIN ([2]; A375 tumour bearing mice, 1 h): 1.265 % ID/g | uptake SPLEEN ([2]; A375 tumour bearing mice, 1 h): 1.351 % ID/g | uptake STOMACH ([2]; A375 tumour bearing mice, 1 h): 1.899 % ID/g | uptake THYROID ([2]; A375 tumour bearing mice, 1 h): 1.162 % ID/g | uptake TUMOUR ([2]; A375 tumour bearing mice, 1 h): 0.920 % ID/g | uptake URINE ([2]; A375 tumour bearing mice, 1 h): 185.427 % ID/g | uptake BLADDER ([2]; A375 tumour bearing mice, 2 h): 4.835 % ID/g | uptake BLOOD ([2]; A375 tumour bearing mice, 2 h): 0.171 % ID/g | uptake BONE ([2]; A375 tumour bearing mice, 2 h): 0.548 % ID/g | uptake BRAIN ([2]; A375 tumour bearing mice, 2 h): 0.224 % ID/g | uptake EYES ([2]; A375 tumour bearing mice, 2 h): 0.238 % ID/g | uptake GIT ([2]; A375 tumour bearing mice, 2 h): 0.580 % ID/g | uptake HEART ([2]; A375 tumour bearing mice, 2 h): 0.205 % ID/g | uptake KIDNEY ([2]; A375 tumour bearing mice, 2 h): 0.650 % ID/g | uptake LIVER ([2]; A375 tumour bearing mice, 2 h): 0.985 % ID/g | uptake LUNGS ([2]; A375 tumour bearing mice, 2 h): 0.324 % ID/g | uptake MUSCLE ([2]; A375 tumour bearing mice, 2 h): 0.280 % ID/g | uptake SKIN ([2]; A375 tumour bearing mice, 2 h): 0.290 % ID/g | uptake SPLEEN ([2]; A375 tumour bearing mice, 2 h): 0.434 % ID/g | uptake STOMACH ([2]; A375 tumour bearing mice, 2 h): 0.748 % ID/g | uptake THYROID ([2]; A375 tumour bearing mice, 2 h): 0.356 % ID/g | uptake TUMOUR ([2]; A375 tumour bearing mice, 2 h): 0.254 % ID/g | uptake URINE ([2]; A375 tumour bearing mice, 2 h): 97.912 % ID/g | uptake BLADDER ([2]; A375 tumour bearing mice, 3 h): 0.360 % ID/g | uptake BLOOD ([2]; A375 tumour bearing mice, 3 h): 0.054 % ID/g | uptake BONE ([2]; A375 tumour bearing mice, 3 h): 0.443 % ID/g | uptake BRAIN ([2]; A375 tumour bearing mice, 3 h): 0.073 % ID/g | uptake EYES ([2]; A375 tumour bearing mice, 3 h): 0.110 % ID/g | uptake GIT ([2]; A375 tumour bearing mice, 3 h): 0.227 % ID/g | uptake HEART ([2]; A375 tumour bearing mice, 3 h): 0.045 % ID/g | uptake KIDNEY ([2]; A375 tumour bearing mice, 3 h): 0.197 % ID/g | uptake LIVER ([2]; A375 tumour bearing mice, 3 h): 0.323 % ID/g | uptake LUNGS ([2]; A375 tumour bearing mice, 3 h): 0.099 % ID/g | uptake MUSCLE ([2]; A375 tumour bearing mice, 3 h): 0.108 % ID/g | uptake SKIN ([2]; A375 tumour bearing mice, 3 h): 0.169 % ID/g | uptake SPLEEN ([2]; A375 tumour bearing mice, 3 h): 0.103 % ID/g | uptake STOMACH ([2]; A375 tumour bearing mice, 3 h): 0.302 % ID/g | uptake THYROID ([2]; A375 tumour bearing mice, 3 h): 0.128 % ID/g | uptake TUMOUR ([2]; A375 tumour bearing mice, 3 h): 0.096 % ID/g | uptake URINE ([2]; A375 tumour bearing mice, 3 h): 37.842 % ID/g

CCN(CC)CCNC(=O)c1cncc(I)c1 [[^123I]11, N-(2-(diethylamino)ethyl)-5-iodonicotinamide]
tumour standardized uptake value (SUVt) ([2]; A375 tumour, BALB/c nude mice, 1 h): 0.7 ± 0.1 | Organ distribution Intestine [2, 4]: 14 ± 2 % ID/organ | Organ distribution Liver [2, 4]: 2.3 ± 0.2 % ID/organ | Organ distribution Spleen [2, 4]: 0.16 ± 0.01 % ID/organ | Organ distribution Stomach [2, 4]: 1.6 ± 0.2 % ID/organ | Organ distribution Thyroid [2, 4]: 0.40 ± 0.07 % ID/organ | Organ distribution Tumour [2, 4]: 0.40 ± 0.16 % ID/organ | Uptake Lung [2, 5]: 1.56 ± 0.2 % ID/g | uptake BLOOD [2, 5]: 1.4 ± 0.2 % ID/g | uptake BRAIN [2, 5]: 0.14 ± 0.02 % ID/g | uptake HEART [2, 5]: 0.8 ± 0.1 % ID/g | uptake KIDNEY [2, 5]: 1.9 ± 0.3 % ID/g | uptake LIVER [2, 5]: 2.2 ± 0.4 % ID/g | uptake TUMOUR [2, 5]: 1.2 ± 0.2 % ID/g | tumour standardized uptake value (SUVt) ([2]; A375 tumour, BALB/c nude mice, 6 h): 0.9 ± 0.2 | Organ distribution Intestine [2, 6]: 2 ± 1 % ID/organ | Organ distribution Liver [2, 6]: 0.7 ± 0.2 % ID/organ | Organ distribution Spleen [2, 6]: 0.03 ± 0.01 % ID/organ | Organ distribution Stomach [2, 6]: 0.4 ± 0.1 % ID/organ | Organ distribution Thyroid [2, 6]: 1.0 ± 0.5 % ID/organ | Organ distribution Tumour [2, 6]: 0.13 ± 0.06 % ID/organ | Uptake Lung [2, 7]: 0.4 ± 0.2 % ID/g | uptake BLOOD [2, 7]: 0.5 ± 0.2 % ID/g | uptake BRAIN [2, 7]: 0.03 ± 0.01 % ID/g | uptake HEART [2, 7]: 0.18 ± 0.07 % ID/g | uptake KIDNEY [2, 7]: 0.47 ± 0.17 % ID/g | uptake LIVER [2, 7]: 0.7 ± 0.3 % ID/g | uptake TUMOUR [2, 7]: 0.4 ± 0.1 % ID/g | tumour standardized uptake value (SUVt) ([2]; A375 tumour, BALB/c nude mice, 24 h): 0.3 ± 0.1 | Organ distribution Intestine [2, 8]: 0.04 ± 0.01 % ID/organ | Organ distribution Liver [2, 8]: 0.09 ± 0.02 % ID/organ | Organ distribution Spleen [2, 8]: 0.002 % ID/organ | Organ distribution Stomach [2, 8]: 0.01 ± 0.00 % ID/organ | Organ distribution Thyroid [2, 8]: 1.4 ± 0.8 % ID/organ | Organ distribution Tumour [2, 8]: 0.001 % ID/organ | Uptake Lung [2, 9]: 0.015 ± 0.004 % ID/g | uptake BLOOD [2, 9]: 0.013 ± 0.002 % ID/g | uptake BRAIN [2, 9]: 0.002 ± 0.001 % ID/g | uptake HEART [2, 9]: 0.012 ± 0.003 % ID/g | uptake KIDNEY [2, 9]: 0.013 ± 0.002 % ID/g | uptake LIVER [2, 9]: 0.08 ± 0.02 % ID/g | uptake TUMOUR [2, 9]: 0.007 ± 0.002 % ID/g
